# In patent publication US20250129103A1, “METHODS FOR TREATMENT OF CANCER” (Frontier Medicines Corporation, priority 2022, published 2025):
# Columns and labels:
# [1] = target: KRAS G12C (GMPPNP-loaded) and PI3Ka (Ras-binding domain) interaction (Homo sapiens (Human), UniProt P01116, C118S/C51S/C80L/G12C); assay: Inhibition of KRAS G12C and PI3Ka binding (AlphaScreen); details: KRAS G12C loaded with GMPPNP, PI3Ka RBD, 2 hours preincubation; read-out: PI3K RBD K-Ras IC50
# Description: The AlphaScreen technology was used to determine IC50S for compound inhibition of KRAS G12C (present as the Cys-light (C51S, C80L and C118S), truncated version comprising amino acids 1-169) and PI3Ka interaction. Compounds were diluted in 100% DMSO and each compound concentration was spotted at 200 nl/well onto low volume, white 384 well plates. The KRAS G12C contained a biotin-AviTag and the PI3Ka, as Ras-binding domain (amino acids 157-300, RBD), was His-tagged. KRAS G12C was preloaded with the GTP analogue Guanosine 5′-[β,γ-imido]triphosphate (GMPPNP). The KRAS G12C was diluted in 25 mM Hepes, pH 7.4, 150 mM NaCl, 5 mM MgCl2, 0.01% TritonX-100 and 10 μM GMPPNP and added at 10 ul/well to compound-spotted plates resulting in a DMSO concentration of 2%. Plates were incubated for 2 hours. A mixture of RBD and the AlphaScreen streptavidin donor and nickel chelate acceptor beads diluted in 25 mM Hepes, pH 7.4, 150 mM NaCl, 5 mM MgCl2, 0.01% TritonX-100 and 2% DMSO was then added at 10 ul/well and incubated for 60-90 minutes before the samples were read for emission at 570 nm after excitation of the donor beads at 680 nm. All incubations were performed at room temperature. The final top compound concentration was 50 μM with 1:3 titrations for 10-point dose response curves. Final assay conditions were 1.5 nM KRAS G12C, 100 nM RBD, 1.25 ug/ml of AlphaScreen donor beads and 10 μg/ml AlphaLISA acceptor beads. IC50s were determined using nonlinear regression fit of [inhibitor] vs. response (4 parameters). […]
# [2] = Determination of kinetic solubility (pH 7.4); format: physicochemical; details: phosphate buffer, pH 7.4, aqueous buffer, kinetic from dmso stock, 50 mM phosphate buffer pH 7.4, read-out: Ksol, pH 7.4
# Procedure, shortened: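 Solubility taken from filtrate peak areas on a calibration curve (HPLC-UV, LC-MS/MS). Before filtration and centrifugation, compound was shaken for 2 h at room temperature in pH 7.4 50 mM phosphate buffer.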
# [3] = Determination of logD (1-octanol / phosphate buffer pH 7.4); format: physicochemical; details: for logD: 1-octanol/phosphate buffer, pH 7.4, pH 7.4, 1-octanol/phosphate buffer, read-out: Log D, pH 7.4
# Procedure, shortened: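 Each phase analysed by LCMS after 1 h shaking at 800 rpm and centrifugation, room temperature. Phases were mutually saturated 1-octanol and 100 mM phosphate buffer at pH 7.4. LogD derived from the phase concentrations.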
# [4] = target: KRAS G12C (GMPPNP-loaded) and cRAF (Ras-binding domain) interaction (Homo sapiens (Human), UniProt P01116, C118S/C51S/C80L/G12C); assay: Inhibition of KRAS G12C and cRAF binding (AlphaScreen); details: KRAS G12C loaded with GMPPNP, cRaf RBD, 2 hours preincubation; read-out: Raf-1 RBD K-Ras IC50
# Procedure, shortened: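 AlphaScreen readout (680 nm excitation, 570 nm emission) of RBD binding after a 60-90 min bead step at room temperature. This step follows 2 h compound exposure of GMPPNP-preloaded KRAS G12C in Hepes pH 7.4 buffer with MgCl2 and 10 μM GMPPNP.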
IC50 [1],logD [3],IC50 [4],Compound,solubility kinetic at 2 h [2],"Log D, pH 7.4 ([3]; pH 7.4, 1-octanol/phosphate buffer)"
< 0.01 µM,4.2,< 0.01 µM,"N#CC[C@H]1CN(c2nc(OC[C@@]34CCCN3C[C@H](F)C4)nc3c(F)c(-c4cccc5ccc(F)c(Cl)c45)ncc23)CCN1C(=O)/C=C/CN1CCC(F)(F)CC1 [Example 82, 2-((S)-4-(7-(8-chloro-7-fluoronaphthalen-1-yl)-8-fluoro-2-(((2R,7aS)-2-fluorotetrahydro-1H-pyrrolizin-7a(5H)-yl)methoxy)pyrido[4,3-d]pyrimidin-4-yl)-1-((E)-4-(4,4-difluoropiperidin-1-yl)but-2-enoyl)piperazin-2-yl)acetonitrile]",0.00346 mg/mL,
< 0.01 µM,3.09,< 0.01 µM,"Cc1cc(N)nc(C2Cc3nc(OC[C@@]45CCCN4C[C@H](F)C5)nc(N4CCN(C(=O)/C=C/C5CCN5C)[C@@H](CC#N)C4)c3CC2C)c1C(F)(F)F (mixture of isomers) [Example 68, 2-((2S)-4-(7-(6-amino-4-methyl-3-(trifluoromethyl)pyridin-2-yl)-2-(((2R,7aS)-2-fluorohexahydro-1H-pyrrolizin-7a-yl)methoxy)-6-methyl-5,6,7,8-tetrahydroquinazolin-4-yl)-1-((E)-3-(1-methylazetidin-2-yl)acryloyl)piperazin-2-yl)acetonitrile]",,
< 0.01 µM,4.42,0.01 to 0.1 µM,"Cc1noc(/C=C/C(=O)N2CCN(c3nc(OC[C@@]45CCCN4C[C@H](F)C5)nc4c3CCN(c3cccc5cccc(Cl)c35)C4)C[C@@H]2CC#N)n1 [Compound 2, 2-((S)-4-(7-(8-chloronaphthalen-1-yl)-2-(((2R,7aS)-2-fluorohexahydro-1H-pyrrolizin-7a-yl)methoxy)-5,6,7,8-tetrahydropyrido[3,4-d]pyrimidin-4-yl)-1-((E)-3-(3-methyl-1,2,4-oxadiazol-5-yl)acryloyl)piperazin-2-yl)acetonitrile]",,
0.01 to 0.1 µM,,0.01 to 0.1 µM,"Cc1cc(N)nc(C2Cc3nc(OC[C@@]45CCCN4C[C@H](F)C5)nc(N4CCN(C(=O)/C=C/c5nc(C(C)C)no5)[C@@H](CC#N)C4)c3CC2C)c1C(F)(F)F (mixture of isomers) [Example 66, 2-((2S)-4-(7-(6-amino-4-methyl-3-(trifluoromethyl)pyridin-2-yl)-2-(((2R,7aS)-2-fluorotetrahydro-1H-pyrrolizin-7a(5H)-yl)methoxy)-6-methyl-5,6,7,8-tetrahydroquinazolin-4-yl)-1-((E)-3-(3-isopropyl-1,2,4-oxadiazol-5-yl)acryloyl)piperazin-2-yl)acetonitrile]",,
< 0.01 µM,,< 0.01 µM,N#CC[C@H]1CN(c2nc(OC[C@@]34CCCN3C[C@H](F)C4)nc3c(F)c(-c4cccc5cccc(F)c45)ncc23)CCN1C(=O)/C=C/CN1C[C@H]2C[C@@H]1CO2 [Compound 220],,
< 0.01 µM,,< 0.01 µM,"C[C@@H]1CN(C/C=C/C(=O)N2CCN(c3nc(OC[C@@]45CCCN4C[C@H](F)C5)nc4c(F)c(-c5cccc6ccc(F)c(Cl)c56)ncc34)C[C@@H]2CC#N)C[C@H](C)O1 [Example 73, 2-((S)-4-(7-(8-chloro-7-fluoronaphthalen-1-yl)-8-fluoro-2-(((2R,7aS)-2-fluorotetrahydro-1H-pyrrolizin-7a(5H)-yl)methoxy)pyrido[4,3-d]pyrimidin-4-yl)-1-((E)-4-((2S,6R)-2,6-dimethylmorpholino)but-2-enoyl)piperazin-2-yl)acetonitrile]",,
< 0.01 µM,,< 0.01 µM,N#CC[C@H]1CN(c2nc(OC[C@@]34CCCN3C[C@H](F)C4)nc3c(F)c(-c4cccc(Cl)c4C4CC4)ncc23)CCN1C(=O)/C=C/CN1CCOCC1 [Compound 243],,
< 0.01 µM,,< 0.01 µM,"C[C@@H]1CN(C/C=C/C(=O)N2CCN(c3nc(OC[C@@]45CCCN4C[C@H](F)C5)nc4c(F)c(-c5cccc6ccc(F)c(Cl)c56)ncc34)C[C@@H]2CC#N)C[C@@H](C)O1 [Example 74, 2-((S)-4-(7-(8-chloro-7-fluoronaphthalen-1-yl)-8-fluoro-2-(((2R,7aS)-2-fluorotetrahydro-1H-pyrrolizin-7a(5H)-yl)methoxy)pyrido[4,3-d]pyrimidin-4-yl)-1-((E)-4-((2R,6R)-2,6-dimethylmorpholino)but-2-enoyl)piperazin-2-yl)acetonitrile]",,
0.01 to 0.1 µM,,< 0.01 µM,"N#CC[C@H]1CN(c2nc(OCC34CCCN3CCC4)nc3c2CCN(c2cccc4cccc(Cl)c24)C3)CCN1C(=O)/C=C/CN1CCOCC1 [Example 11, (S,E)-2-(4-(7-(8-chloronaphthalen-1-yl)-2-((hexahydro-1H-pyrrolizin-7a-yl)methoxy)-5,6,7,8-tetrahydropyrido[3,4-d]pyrimidin-4-yl)-1-(4-morpholinobut-2-enoyl)piperazin-2-yl)acetonitrile]",,
< 0.01 µM,,< 0.01 µM,N#CC[C@H]1CN(c2nc(OCC34CCCN3CCC4)nc3c2CCN(c2cccc4cccc(Cl)c24)C3)CCN1C(=O)/C=C/CN1CCCCC1 [Compound 170],,

# Second part, the compound before the results:
Compound,IC50 [1],logD [3],IC50 [4],solubility kinetic at 2 h [2],"Log D, pH 7.4 ([3]; pH 7.4, 1-octanol/phosphate buffer)"
N#CC[C@H]1CN(c2nc(OC[C@@]34CCCN3C[C@H](F)C4)nc3c(F)c(-c4cccc5cccc(Cl)c45)ncc23)CCN1C(=O)/C=C/CN1C2COCC1C2 [Compound 189],< 0.01 µM,2.96,< 0.01 µM,0.109 mg/mL,
"2-((S)-4-(7-(8-chloro-7-fluoronaphthalen-1-yl)-8-fluoro-2-(((2R,7aS)-2-fluorotetrahydro-1H-pyrrolizin-7a(5H)-yl)methoxy)pyrido[4,3-d]pyrimidin-4-yl)-1-((E)-4-((3aR,6aS)-tetrahydro-1H-furo[3,4-c]pyrrol-5(3H)-yl)but-2-enoyl)piperazin-2-yl)acetonitrile [Example 84]",< 0.01 µM,,< 0.01 µM,,2.97
"Cc1nccc(/C=C/C(=O)N2CCN(c3nc(OC[C@@]45CCCN4C[C@H](F)C5)nc4c(F)c(-c5cccc(Cl)c5C5CC5)ncc34)C[C@@H]2CC#N)n1 [Compound 104, 2-((S)-4-(7-(3-chloro-2-cyclopropylphenyl)-8-fluoro-2-(((2R,7aS)-2-fluorotetrahydro-1H-pyrrolizin-7a(5H)-yl)methoxy)pyrido[4,3-d]pyrimidin-4-yl)-1-((E)-3-(2-methylpyrimidin-4-yl)acryloyl)piperazin-2-yl)acetonitrile]",< 0.01 µM,,< 0.01 µM,,
CN(C/C=C/C(=O)N1CCN(c2nc(OCC34CCCN3CCC4)nc3c2CCN(c2cccc4cccc(Cl)c24)C3)C[C@@H]1CC#N)CC1COC1 [Compound 318],< 0.01 µM,,< 0.01 µM,,
N#CC[C@H]1CN(c2nc(OC[C@@]34CCCN3C[C@H](F)C4)nc3c(F)c(-c4cccc5cccc(Cl)c45)ncc23)CCN1C(=O)/C=C/CN1C[C@@H]2C[C@H]1CO2 [Compound 180],< 0.01 µM,,< 0.01 µM,,
"N#CC[C@H]1CN(c2nc(OC[C@@]34CCCN3C[C@H](F)C4)nc3c(F)c(-c4cccc5cccc(Cl)c45)ncc23)CCN1C(=O)/C=C/CN1CCSCC1 [Compound 97, 2-((S)-4-(7-(8-chloronaphthalen-1-yl)-8-fluoro-2-(((2R,7aS)-2-fluorohexahydro-1H-pyrrolizin-7a-yl)methoxy)pyrido[4,3-d]pyrimidin-4-yl)-1-((E)-4-thiomorpholinobut-2-enoyl)piperazin-2-yl)acetonitrile]",< 0.01 µM,,< 0.01 µM,,
"N#CC[C@H]1CN(c2nc(OC[C@@]34CCCN3C[C@H](F)C4)nc3c(F)c(-c4cccc5ccc(F)c(Cl)c45)ncc23)CCN1C(=O)/C=C/CN1C2COCC1C2 [Example 76, 2-((2S)-1-((E)-4-(3-oxa-6-azabicyclo[3.1.1]heptan-6-yl)but-2-enoyl)-4-(7-(8-chloro-7-fluoronaphthalen-1-yl)-8-fluoro-2-(((2R,7aS)-2-fluorotetrahydro-1H-pyrrolizin-7a(5H)-yl)methoxy)pyrido[4,3-d]pyrimidin-4-yl)piperazin-2-yl)acetonitrile]",< 0.01 µM,,< 0.01 µM,,
